Laboratory results taken from the supplement of paper PMC10307832.

What was measured:
Assay in all cases: relative viability (nuclei count vs DMSO), 5 days (fraction); higher = more cells survive
ABC-1 = system: ABC-1
How it was run: (§1)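 Relative viability divides the nuclei count in treated wells by that in vehicle wells. Lung cancer cell lines were seeded in 1536-well plates, dosed by pin tool the next day, and fixed and stained after 5 days in one step with final 0.05% Triton X-100, 1% formaldehyde and 1 ug/ml Hoechst. Dosing was a single drug or a fixed anchor-drug dose plus five library-drug doses (not always all listed) in √10 steps, and values are medians of duplicate plates imaged at 4×.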

COR-L23 = system: COR-L23
How it was run: as §1

ChaGo-K-1 = system: ChaGo-K-1
How it was run: as §1

EPLC-272H = system: EPLC-272H
How it was run: as §1

HCC-15 = system: HCC-15
How it was run: as §1

HCC-366 = system: HCC-366
How it was run: as §1

HCC-44 = system: HCC-44
How it was run: as §1

HCC-827 = system: HCC-827
How it was run: as §1

LCLC-103H = system: LCLC-103H
How it was run: as §1

NCI-H1355 = system: NCI-H1355
How it was run: as §1

NCI-H1734 = system: NCI-H1734
How it was run: as §1

`Cc1csc(=NC2CCCCC2)n1/N=C/c1ccc(O)c(O)c1O` [MIM1] + CS(=O)(=O)N1CCN(Cc2cc3nc(-c4cccc5[nH]ncc45)nc(N4CCOCC4)c3s2)CC1 [Pictilisib] (partner 1 µM) showed a relative viability (ABC-1; first compound 0.2 µM) of 0.547, a relative viability (ABC-1; first compound 0.6325 µM) of 0.852 and a relative viability (ABC-1; first compound 2 µM) of 0.722. The relative viability (ABC-1; first compound 6.325 µM) was 0.286, the relative viability (ABC-1; first compound 20 µM) was 0.286 and the relative viability (COR-L23; first compound 0.2 µM) was 0.692. The relative viability (COR-L23; first compound 0.6325 µM) was 0.654, the relative viability (COR-L23; first compound 2 µM) was 0.844 and the relative viability (COR-L23; first compound 6.325 µM) was 0.525. For the same molecule, the relative viability (COR-L23; first compound 20 µM) was 0.217, the relative viability (ChaGo-K-1; first compound 0.2 µM) was 0.876 and the relative viability (ChaGo-K-1; first compound 0.6325 µM) was 0.629. It also gave a relative viability (ChaGo-K-1; first compound 2 µM) of 0.863, a relative viability (ChaGo-K-1; first compound 6.325 µM) of 0.644 and a relative viability (ChaGo-K-1; first compound 20 µM) of 0.265. It also gave a relative viability (EPLC-272H; first compound 0.2 µM) of 0.355, a relative viability (EPLC-272H; first compound 0.6325 µM) of 0.339 and a relative viability (EPLC-272H; first compound 2 µM) of 0.334. For the same molecule, the relative viability (EPLC-272H; first compound 6.325 µM) was 0.3, the relative viability (EPLC-272H; first compound 20 µM) was 0.235 and the relative viability (HCC-15; first compound 0.2 µM) was 0.872. For the same molecule, the relative viability (HCC-15; first compound 0.6325 µM) was 0.455, the relative viability (HCC-15; first compound 2 µM) was 0.824 and the relative viability (HCC-15; first compound 6.325 µM) was 0.53. It also gave a relative viability (HCC-15; first compound 20 µM) of 0.11, a relative viability (HCC-366; first compound 0.2 µM) of 0.166 and a relative viability (HCC-366; first compound 0.6325 µM) of 0.153. The relative viability (HCC-366; first compound 2 µM) was 0.122, the relative viability (HCC-366; first compound 6.325 µM) was 0.183 and the relative viability (HCC-366; first compound 20 µM) was 0.0561. The relative viability (HCC-44; first compound 0.2 µM) was 0.811, the relative viability (HCC-44; first compound 0.6325 µM) was 0.589 and the relative viability (HCC-44; first compound 2 µM) was 0.61. The relative viability (HCC-44; first compound 6.325 µM) was 0.356, the relative viability (HCC-44; first compound 20 µM) was 0.198 and the relative viability (HCC-827; first compound 0.2 µM) was 0.985. For the same molecule, the relative viability (HCC-827; first compound 0.6325 µM) was 0.936, the relative viability (HCC-827; first compound 2 µM) was 0.947 and the relative viability (HCC-827; first compound 6.325 µM) was 0.618. The relative viability (HCC-827; first compound 20 µM) was 0.664, the relative viability (LCLC-103H; first compound 0.2 µM) was 0.721 and the relative viability (LCLC-103H; first compound 0.6325 µM) was 0.574. The relative viability (LCLC-103H; first compound 2 µM) was 0.608, the relative viability (LCLC-103H; first compound 6.325 µM) was 0.631 and the relative viability (LCLC-103H; first compound 20 µM) was 0.59. For the same molecule, the relative viability (NCI-H1355; first compound 0.2 µM) was 0.402, the relative viability (NCI-H1355; first compound 0.6325 µM) was 0.392 and the relative viability (NCI-H1355; first compound 2 µM) was 0.435. The relative viability (NCI-H1355; first compound 6.325 µM) was 0.376, the relative viability (NCI-H1355; first compound 20 µM) was 0.234 and the relative viability (NCI-H1734; first compound 0.2 µM) was 0.501. It also gave a relative viability (NCI-H1734; first compound 0.6325 µM) of 0.408, a relative viability (NCI-H1734; first compound 2 µM) of 0.442 and a relative viability (NCI-H1734; first compound 6.325 µM) of 0.351. For the same molecule, the relative viability (NCI-H1734; first compound 20 µM) was 0.266.
